Results on 13 compounds are retold here after publication PMC11284790, “Targeting Myeloperoxidase Ameliorates Gouty Arthritis: A Virtual Screening Success Story” (Journal of Medicinal Chemistry, 2024).

Assay [1] addresses T1, Human leukocyte MPO (Homo sapiens, UniProt P05164). As to the kind of experiment: MPO chlorinating activity assay (taurine chloramine/TMB). Type of assay: biochemical. Also on record: Human leukocyte MPO (EC 1.7.1.11) was purchased from Planta Natural Products; purchased Planta Natural Products (Vienna, Austria); host or cells: human leukocytes. As to conditions: for IC50: pH 7.4; for chlorinating/peroxidatic activity inhibition ratio: ratio of % inhibition at 20 μM, ~1 indicates true enzyme inhibitor. The protocol:
Chlorinating activity was carried out in phosphate buffer (20 mM, pH 7.4). Compounds (20 μM) were dissolved in 0.03% DMSO, MPO (10 nM), diethylenetriaminepentaacetic acid (100 μM), cetyltrimethylammonium chloride (0.03%), NaCl (140 mM), and taurine (5 mM).[31] This mixture was incubated at 37 °C for 15 min before adding 40 μM hydrogen peroxide. The reaction ran for 8 min and was then stopped by catalase (20 μg/mL). Oxidation of TMB (2 mM) (3,3,5,5-tetramethylbenzidine) by taurine chloroamine catalyzed by iodide (100 μM) was quantified at 650 nm.[33] Results were expressed as a percentage of the control (vehicle). IC50 was calculated by nonlinear regression using the Hill equation present in GraphPad Prism 5 software.

The target of assay [2] is T1, Human leukocyte MPO. The experiment in a line: MPO peroxidatic activity assay (AmplexRed oxidation). Format: biochemical. On the set-up: Human leukocyte MPO (EC 1.7.1.11) was purchased from Planta Natural Products; purchased Planta Natural Products (Vienna, Austria); host or cells: human leukocytes. The protocol:
MPO peroxidase activity was kinetically monitored using the artificial peroxidase substrate AmplexRed, which is oxidized to resorufin and can be detected by fluorescence.[34] Reactions were carried out in phosphate buffer (50 mM, pH 7.4), MPO (100 pM), cetyltrimethylammonium chloride (0.03%), diethylenetriaminepentaacetic acid (100 μM), AmplexRed (30 μM), and compounds (20 μM in 0.3% DMSO). The reaction was started by adding 2 μM hydrogen peroxide. The reaction product was assessed by fluorescence at λex = 530 and λem = 580 nm. The initial velocity was calculated by the slope of the linear regression in the first minutes of reaction. Inhibition is represented as a percentage of the control (vehicle).

Assay [3] in a line: Taurine chloroamine scavenger assay. As to conditions: 15 min at 37 °C, TMB readout. As for the experimental part:
Taurine chloramine was prepared by mixing hypochlorous acid (2.81 mM) with taurine (5 mM), cetyltrimethylammonium chloride (0.03%), NaCl (140 mM), and diethylenetriaminepentaacetic acid (100 μM) in phosphate buffer (20 mM, pH 7.4). The system was kept at 37 °C for 5 min for complete chloramine taurine formation. The compounds were added to this mixture and incubated for 15 min at 37 °C. Taurine chloramine was quantified by the oxidation of TMB (2 mM) catalyzed by iodide (100 μM).[33]

In the next assay the test system is dHL-60 cells. As to the kind of experiment: Cellular production of HOCl, PMA-activated dHL-60 cells. Type of assay: cell-based, human. Conditions: 20 μM compound, 100 nM PMA, 1 h. The protocol:
Human promyelocytic leukemic cells (HL-60) (BCRJ, RJ, Brazil) were cultivated in RPMI with fetal bovine serum (10%), penicillin (62 μg/mL), and streptomycin (100 μg/mL) at 37 °C in 5% CO2 atmosphere. HL-60 cells were differentiated to neutrophil-like (dHL-60) by DMSO (1.25%) during 4 days.[25]
(§1) Measurement of HOCl production by 1 × 10^6 dHL-60 or neutrophils was carried out in PBS (10 mM Na2HPO4, 2 mM KH2PO4, 0.5 mM MgCl2, 1 mM CaCl2, 140 mM NaCl, 5.5 mM dextrose, 100 μM diethylenetriaminepentaacetic acid, 5 mM taurine) in the presence of the compounds (20 μM in 0.3% DMSO) or 0.3% DMSO (control). Cells were activated with phorbol myristate acetate (100 nM) at 37 °C for 1 h. After incubation, cells were centrifuged at 1400 rpm for 10 min, and the supernatant was diluted threefold. Finally, 240 μL of this supernatant was added to 60 μL acetate buffer (400 mM, pH 5.4) containing NaI (100 μM) and TMB (2 mM in DMFO 10%). Taurine chloramine was quantified by TMB oxidation at 655 nm.[33] Inhibition of HOCl production was calculated as the percentage of the control (vehicle).

Assay [4] deals with human peripheral blood neutrophils. As to the kind of experiment: Cellular production of HOCl, PMA-activated peripheral blood neutrophils. Format: cell-based. As to conditions: 20 μM compound, 100 nM PMA, 1 h. As for the experimental part:
Human neutrophils were obtained from healthy individuals as previously described.[24] The experiments were approved by the local ethics committee (CEPSH-ICB 1435/18).
as §1

Setting [5] is: 20 μM compound, 10 nM MPO, 140 mM NaCl, 5 mM taurine, 40 μM H2O2, pH 7.4.
[6] abbreviates: supplementary csv copy of Table 1.
The mark [7] stands for this setting: 20 μM compound, 100 pM MPO, 30 μM AmplexRed, 2 μM H2O2, pH 7.4.
The mark [8] stands for this setting: 20 μM compound, 10 nM MPO, 140 mM NaCl, 5 mM taurine, 40 μM H2O2, pH 7.4, read-out: % Inhibition (at 20 μM) Chlorinating.
Setting [9] is: supplementary csv copy of Table 1, read-out: % Inhibition (Chlorinating).
Where [10] appears, read: 20 μM compound, 100 pM MPO, 30 μM AmplexRed, 2 μM H2O2, pH 7.4, read-out: % Inhibition (at 20 μM) Peroxidatic.
Where [11] appears, read: supplementary csv copy of Table 1, read-out: % Inhibition (Peroxidatic).

Each structure is given as a SMILES string.

T1 sequence (P05164 279-745 limits assumed): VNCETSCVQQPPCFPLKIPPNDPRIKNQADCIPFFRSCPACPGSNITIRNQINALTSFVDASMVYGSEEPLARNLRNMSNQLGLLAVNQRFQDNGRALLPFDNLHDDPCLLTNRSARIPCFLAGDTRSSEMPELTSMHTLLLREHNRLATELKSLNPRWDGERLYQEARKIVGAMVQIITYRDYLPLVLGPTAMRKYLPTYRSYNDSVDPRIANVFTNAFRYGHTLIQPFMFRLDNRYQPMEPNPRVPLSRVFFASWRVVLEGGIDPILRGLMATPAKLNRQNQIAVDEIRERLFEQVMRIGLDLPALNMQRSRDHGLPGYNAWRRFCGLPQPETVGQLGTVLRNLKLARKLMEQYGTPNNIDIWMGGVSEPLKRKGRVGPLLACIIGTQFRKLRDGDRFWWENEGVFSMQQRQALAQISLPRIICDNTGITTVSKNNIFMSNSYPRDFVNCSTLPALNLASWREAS
T1 sequence (P05164 165-278 limits assumed): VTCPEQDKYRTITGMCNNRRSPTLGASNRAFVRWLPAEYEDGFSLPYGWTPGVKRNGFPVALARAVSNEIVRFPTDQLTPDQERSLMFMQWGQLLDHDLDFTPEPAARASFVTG

Regarding `COc1cc(/C=N/NC(=O)c2ccoc2C)ccc1OCCN1CCCCC1` [RL15], the “% Inhibition (at 20 μM) Chlorinating” value on Human leukocyte MPO [1] (setting [5]) is listed as “INACTIVE”. The “% Inhibition (Chlorinating)” value at Human leukocyte MPO [1] (setting [6]) was “INACTIVE”.

With `O=c1c2cnc3cc(C(F)(F)F)ccc3c2sc2nncn12` [RL25], the “% Inhibition (at 20 μM) Chlorinating” value on Human leukocyte MPO [1] (setting [5]) is listed as “INACTIVE”. For the same compound, the “% Inhibition (Chlorinating)” value on Human leukocyte MPO [1] (setting [6]) is “INACTIVE”. Besides, the “% Inhibition (at 20 μM) Peroxidatic” value at Human leukocyte MPO [2] (setting [7]) is “INACTIVE”. For the same compound, at Human leukocyte MPO [2] (setting [6]), the “% Inhibition (Peroxidatic)” value is listed as “INACTIVE”.

Usually inhibition stands for the percentage by which the read-out fell short of the control. `CC1CCCc2sc3nc(S)n(N)c(=O)c3c21` (centres unmarked) [RL27]: the inhibition at 20 µM at Human leukocyte MPO [1] (setting [8]) amounted to 18.6 ± 1.6%; at Human leukocyte MPO [1] (setting [9]), 18.6 ± 1.6%; at Human leukocyte MPO [2] (setting [10]) it was 29.5 ± 2.9%; on Human leukocyte MPO [2] (setting [11]), 29.5 ± 2.9%.

In the case of `CCOC(=O)C(Cc1ccc(O)cc1)NC1=CC(=O)C(=O)c2ccccc21` (centres unmarked) [RL16], the “% Inhibition (at 20 μM) Chlorinating” value on Human leukocyte MPO [1] (setting [5]) is “INACTIVE”. Further, the “% Inhibition (Chlorinating)” value on Human leukocyte MPO [1] (setting [6]) is reported as “INACTIVE”. Also, the “% Inhibition (at 20 μM) Peroxidatic” value at Human leukocyte MPO [2] (setting [7]) is given as “inhibited exclusively the peroxidatic assay”. The inhibition at 20 µM at Human leukocyte MPO [2] (setting [10]) and at Human leukocyte MPO [2] (setting [11]) was 67.1 ± 8.1% each time.

Regarding `CCc1n[nH]c2c1C(c1ccc(O)c(OC)c1)C(C#N)=C(N)O2` (centres unmarked) [RL23], the inhibition at 20 µM on Human leukocyte MPO [1] (setting [8]) came to 57.8 ± 13.9%; on Human leukocyte MPO [1] (setting [9]), 57.8 ± 13.9%; on Human leukocyte MPO [2] (setting [10]) it was 25.1 ± 3.2%; on Human leukocyte MPO [2] (setting [11]), 25.1 ± 3.2%.

In general, IC50 refers to the concentration that gives 50% inhibition. Read a high IC50 as weaker potency. With `CCCOc1ccc(C2C(C#N)=C(N)SC(N)=C2C#N)cc1OC` [RL26], in assay [3], the “scavenger activity toward taurine chloramine” value is “decreased both taurine chloroamine”. On Human leukocyte MPO [1] (10 nM MPO, 140 mM NaCl), this compound returned an IC50 of 12.6 µM. For the same compound, the inhibition at 20 µM on Human leukocyte MPO [1] (setting [8]) came to 81 ± 5.8%; at Human leukocyte MPO [1] (setting [9]), 81 ± 5.8%; at Human leukocyte MPO [2] (setting [10]) it was 78.7 ± 4.2%; on Human leukocyte MPO [2] (setting [11]) it was 78.7 ± 4.2%.

Regarding `COc1ccc(C(=O)Nc2ccc(-c3nnc(S)o3)cc2)cc1` [RL18], the “scavenger activity toward taurine chloramine” value in assay [3] is given as “scavenger capacity”. For the same compound, the “inhibition of HOCl production in dHL-60 cells” value in the assay on dHL-60 cells is reported as “no effect”. Also, in assay [4], the “inhibition of HOCl production in peripheral blood neutrophils” value is reported as “no effect”. Moreover, on Human leukocyte MPO [1] (10 nM MPO, 140 mM NaCl), 12 µM corresponded to half-maximal inhibition (IC50). Further, the “% Inhibition (at 20 μM) Chlorinating” value at Human leukocyte MPO [1] (setting [5]) is recorded as “active against chlorinating activity only”. In addition, the inhibition at 20 µM on Human leukocyte MPO [1] (setting [8]) and at Human leukocyte MPO [1] (setting [9]) was 73 ± 19.7% each time. Further, the “chlorinating/peroxidatic activity inhibition ratio” value on Human leukocyte MPO [1] was “high”. The “% Inhibition (at 20 μM) Peroxidatic” value at Human leukocyte MPO [2] (setting [7]) is “INACTIVE”. Also, the “% Inhibition (Peroxidatic)” value at Human leukocyte MPO [2] (setting [6]) is reported as “INACTIVE”.

`O=C1ON=C(c2ccccc2)/C1=C\c1cccc(O)c1` [RL17]: the inhibition at 20 µM at Human leukocyte MPO [1] (setting [8]) was 63 ± 6.2%; at Human leukocyte MPO [1] (setting [9]), 63 ± 6.2%; at Human leukocyte MPO [2] (setting [10]), 24 ± 4.1%; at Human leukocyte MPO [2] (setting [11]) it was 24 ± 4.1%. Further, on Human leukocyte MPO [1], the “chlorinating/peroxidatic activity inhibition ratio” value is listed as “high”.

Turning to `CCOC(=O)C1=C(N)Oc2cc(O)ccc2C1c1ccc(F)cc1F` (centres unmarked) [RL24], the inhibition at 20 µM is 40.1 ± 5.5% at Human leukocyte MPO [1] (setting [8]), 40.1 ± 5.5% on Human leukocyte MPO [1] (setting [9]), 59.1 ± 2.9% on Human leukocyte MPO [2] (setting [10]) and 59.1 ± 2.9% on Human leukocyte MPO [2] (setting [11]).

`CC1CCc2sc3c(c2C1)c1ncnn1c1nnc(S)n31` (centres unmarked) [RL9]: the inhibition at 20 µM is 92 ± 3.2% on Human leukocyte MPO [1] (setting [8]), 92 ± 3.2% at Human leukocyte MPO [1] (setting [9]), 42.1 ± 7.9% on Human leukocyte MPO [2] (setting [10]) and 42.1 ± 7.9% on Human leukocyte MPO [2] (setting [11]). On Human leukocyte MPO [1], the “chlorinating/peroxidatic activity inhibition ratio” value was “high”.

With `CCCNc1ncnc2cc(-c3ccc(OC)cc3)sc12` [RL28], the “% Inhibition (at 20 μM) Chlorinating” value on Human leukocyte MPO [1] (setting [5]) is listed as “INACTIVE”. Moreover, the “% Inhibition (Chlorinating)” value on Human leukocyte MPO [1] (setting [6]) is recorded as “INACTIVE”. On Human leukocyte MPO [2] (setting [7]), the “% Inhibition (at 20 μM) Peroxidatic” value is on record as “INACTIVE”. Besides, at Human leukocyte MPO [2] (setting [6]), the “% Inhibition (Peroxidatic)” value is “INACTIVE”.

Regarding `N#CC1=C(N)Oc2c(c(=O)sc3ccccc23)C1c1ccc(F)cc1` (centres unmarked) [RL20], on Human leukocyte MPO [1] (setting [5]), the “% Inhibition (at 20 μM) Chlorinating” value was “INACTIVE”. On Human leukocyte MPO [1] (setting [6]), the “% Inhibition (Chlorinating)” value is recorded as “INACTIVE”. Besides, the “% Inhibition (at 20 μM) Peroxidatic” value at Human leukocyte MPO [2] (setting [7]) is recorded as “inhibited exclusively the peroxidatic assay”. Besides, the inhibition at 20 µM on Human leukocyte MPO [2] (setting [10]) and on Human leukocyte MPO [2] (setting [11]) was 34 ± 4.3% each time.

For `CC1=Nc2ccc(Cl)cc2-c2[nH]c3ccccc3c2N1` [RL1], the inhibition at 20 µM at Human leukocyte MPO [1] (setting [8]) came out at 50.2 ± 4%; on Human leukocyte MPO [1] (setting [9]), 50.2 ± 4%; at Human leukocyte MPO [2] (setting [10]) it was 81 ± 15.1%; on Human leukocyte MPO [2] (setting [11]), 81 ± 15.1%.
